Data on 23 compounds can be found in patent US5081245A, “Carboxylic acid derivatives” (Takeda Chemical Industries, Ltd., priority 1988, dated 1992).

One may read the IC50 as the concentration that inhibits the measured activity by half. Higher therefore signals weaker potency in that assay.

Structures are written as SMILES. In brackets after ≈: the same amount, converted by molar mass.

Series [1] relates to human oral epidermoid carcinoma KB cells. Nature of the series: Growth inhibitory effect against KB cells (MTT, 72 h). The conditions noted are these: absorbance 590 nm. The class given is cell-based. The method, then:
Growth Inhibitory Effect (IC50) of Compounds Obtained in Examples Against KB Cells Human oral epidermoid carcinoma KB cells (1×10^4 cells/ml) were transferred to a 96-well microwell plate at 0.1 ml per well and subjected to stationary culture at 37° C. with 5% CO2 for 24 hours. To the resulting culture was added a 10% MEM (Nissui Junyaku) solution of a compound of an Example, followed by stationary culture at 37° C. with 5% CO2 for 72 hours. The culture broth was then removed using a micropipette. 0.1 ml of a 10% minimal essential medium solution containing 3-(4,5-dimethylthiazol-2-yl)-2,5-diphenyl-2H-tetrazolium bromide (Dojin Kagaku) (1.0 mg/ml) was added, followed by cultivation at 37° C. for 4 hours. 0.1 ml of a 10% sodium dodecylsulfate (Wako Pure Chemical) was then added, followed by cultivation at 37° C. for 24 hours.

The test system of a further series is CDF-1 mice. Nature of the series: Acute toxicity test in mice, single intraperitoneal administration. The note with it: single i.p., female CDF-1 mice, 7 days observation. The class given is in vivo. The method, then:
Acute Toxicity Test with Compounds of Example in Mice
0.2 ml of a solution of a compound of the Example in physiological saline was intraperitoneally administered once to female CDF-1 mice (5 weeks in age, 5 animals per group). Observation was conducted for 7 days following the administration.

Series [2] concerns Sarcoma 180 cells. Nature of the series: Antitumor activity on Sarcoma 180 cells in ICR mice, intraperitoneal. The class given is in vivo. The note with it: 0.1 mg/mouse, 8 times, tumor weight after 21 days. As for the experimental part:
(§1) Antitumor Activity of Compounds Obtained in Examples on Sarcoma 180 Cells
(2) Sarcoma 180 cells were subcutaneously transplanted to the side of the back of ICR mice (5 mice per group) at 1×10^6 cells per animal. 8, 9, 12, 13, 15, 16, 19 and 20 days after the transplantation (a total of 8 times), a compound of an Example, dissolved in physiological saline, was intraperitoneally administered (0.1 mg/mouse). After 21 days, the tumor tissue was excised and weighed.

Series [3] has as its system Sarcoma 180 cells. Nature of the series: Antitumor activity on Sarcoma 180 cells in ICR mice, oral. The class given is in vivo. The note with it: 0.3 mg/mouse, 9 times, tumor weight after 21 days. The method, then:
as §1
(1) Sarcoma 180 cells were subcutaneously transplanted to the side of the back of ICR mice (5 mice per group) at 1×10^6 cells per animal. 8, 9, 10, 13, 14, 15, 16, 17 and 20 days after the transplantation (a total of 9 times), the compound of Example 1, dissolved in physiological saline, was orally administered (0.3 mg/mouse). After 21 days, the tumor tissue was excised and weighed.

The conditions of series [4]: cited from earlier work.

In series [1], `CCCCCCCCCCCCCCCCCCOCC(COCCOCC[N+]1(CCCCCC(=O)[O-])CCCC1)Oc1ncccn1` (stereo not shown) [Example 17, 6-[1-[2-[2-[3-octadecyloxy-2-(pyrimidin-2-yloxy)-propoxy]ethoxy]ethyl]pyrrolidinio-1-yl]hexanoate] displayed an IC50 of 0.32 µg/mL (≈ 0.472 µM).

The compound `CCCCCCCCCCCCCCCCCCOCC(COCCOCC[n+]1ccn(CCCOC(=O)CCC(=O)[O-])c1)Oc1ncccn1` (stereo not shown) [Example 18, 3-[3-[2-[2-[3-octadecyloxy-2-(pyrimidin-2-yloxy)-propoxy]ethoxy]ethyl]imidazolio-1-yl]propyl succinate] came in with an IC50 in series [1] of 0.32 µg/mL.

Regarding `CCCCCCCCCCCCCCCCCCOCC(COCCOCC[N+](C)(C)CCCCCC(=O)[O-])OCC(C)=O` (stereo not shown) [Example 5, 6-[N,N-dimethyl-N-[2-[2-[3-octadecyloxy-2-(2-oxopropoxy)propoxy]ethoxy]ethyl]ammonio]hexanoate], the half-inhibitory concentration (IC50) in series [1] was determined as 2.5 µg/mL (≈ 3.97 µM). The “Number of mice that died/number of subject mice” value in the series with CDF-1 mice (50 mg/kg) is reported as 0/5.

In series [1], `CCCCCCCCCCCCCCCCCCOCC(COCCOCC[n+]1ccn(CCCCCCCCC(=O)[O-])c1)Oc1ncccn1` (stereo not shown) [Example 7] had an IC50 of 0.16 µg/mL (≈ 0.223 µM).

Consider `CCCCCCCCCCCCCCCCCCOCC(COCCOCC[n+]1ccn(CCCC(=O)[O-])c1)Oc1ncccn1` (stereo not shown) [Example 8, 4-[3-[2-[2-[3-octadecyloxy-2-(pyrimidin-2-yloxy)-propoxy]ethoxy]ethyl]imidazolio-1-yl]butyrate], for which the IC50 in series [1] came to 1.25 µg/mL (≈ 1.93 µM). For the same compound, in the series on CDF-1 mice (100 mg/kg), the “Number of mice that died/number of subject mice” value is 0/5. In the series with Sarcoma 180 cells [2], the “Growth inhibition ratio (1-T/C %)” value amounted to 66%.

As to `CCCCCCCCCCCCCCCCCCOCC(COCCOCC[n+]1ccn(CCC(C)(C)C(=O)[O-])c1)Oc1ncccn1` (stereo not shown) [Example 16, 2,2-dimethyl-4-[3-[2-[2-[3-octadecyloxy-2-(pyrimidin-2-yloxy)propoxy]ethoxy]ethyl]imidazolio-1-yl]butyrate], in series [1], the half-maximal inhibitory concentration (IC50) stood at 0.63 µg/mL (≈ 0.933 µM).

Take `CCCCCCCCCCCCCCCCCCOCC(COCCOCC[n+]1cccc(CCC(=O)[O-])c1)Oc1ncccn1` (stereo not shown) [Example 12, 3-[1-[2-[2-[3-octadecyloxy-2-(pyrimidin-2-yloxy)-propoxy]ethoxy]ethyl]pyridinio-3-yl]propionate]: the IC50 in series [1] turned out to be 0.63 µg/mL (≈ 0.978 µM). Further, the “Number of mice that died/number of subject mice” value with CDF-1 mice (100 mg/kg) is 0/5. The “Growth inhibition ratio (1-T/C %)” value with Sarcoma 180 cells [2] came out at 81%.

`CCCCCCCCCCCCCCCCCCOCC(COCCOCCOCC[n+]1ccn(CCCC(=O)[O-])c1)Oc1ncccn1` (stereo not shown) [Example 21, 4-[3-[2-[2-[2-[3-octadecyloxy-2-(pyrimidin-2-yloxy)propoxy]ethoxy]ethoxy]ethyl]imidazolio-1-yl]-butyrate] displayed an IC50 in series [1] of 0.63 µg/mL (≈ 0.912 µM). In addition, the “Number of mice that died/number of subject mice” value in the series with CDF-1 mice (100 mg/kg) is given as 0/5.

In series [1], `CCCCCCCCCCCCCCCCCCOCC(COCCOCC[n+]1ccn(CC(=O)[O-])c1)OCCCCCC` (stereo not shown) [Example 6, 2-[3-[2-[2-[2-hexyloxy-3-octadecyloxypropoxy]-ethoxy]ethyl]imidazolio-1-yl]acetate] came in with an IC50 of 2.5 µg/mL (≈ 4 µM). Further, the “Number of mice that died/number of subject mice” value in the series with CDF-1 mice (50 mg/kg) was 0/5.

Regarding `CCCCCCCCCCCCCCCCCCOCC(COCCOCC[n+]1ccn(CCCCCC(=O)[O-])c1)Oc1ncccn1` (stereo not shown) [Example 1, 6-[3-[2-[2-[3-octadecyloxy-2-(pyrimidin-2-yloxy)-propoxy]ethoxy]ethyl]imidazolio-1yl]hexanoate], in series [1], the IC50 worked out at 0.16 µg/mL (≈ 0.237 µM). Moreover, the “Number of mice that died/number of subject mice” value in the series on CDF-1 mice (50 mg/kg) was 0/5. Further, the “Growth inhibition ratio (1-T/C %)” value in the series on Sarcoma 180 cells [3] amounted to 65%.

Compound `CCCCCCCCCCCCCCCCCCOCC(COCCOCC[n+]1cccc(CCCOC(=O)CCC(=O)[O-])c1)Oc1ncccn1` (stereo not shown) [Example 19, 3-[1-[2-[2-[3-octadecyloxy-2-(pyrimidin-2-yloxy)-propoxy]ethoxy]ethyl]pyridinio-3-yl]propyl succinate] gave an IC50 in series [1] of 0.63 µg/mL.

Regarding `CCCCCCCCCCCCCCCCCCOCC(COCCOCCOCC[n+]1ccn(CCCCCC(=O)[O-])c1)Oc1ncccn1` (stereo not shown) [Example 20, 6-[3-[2-[2-[2-[3-octadecyloxy-2-(pyrimidin-2-yloxy)propoxy]ethoxy]ethoxy]ethyl]imidazolio-1-yl]-hexanoate], 0.32 µg/mL (≈ 0.445 µM) corresponded to half-maximal inhibition in series [1] (IC50). For the same compound, in the series on CDF-1 mice (100 mg/kg), the “Number of mice that died/number of subject mice” value was 0/5.

With `CCCCCCCCCCCCCCCCCCOCC(COP(=O)([O-])OCC[N+](C)(C)C)OC` (stereo not shown) [phospholipid represented by formula (II)], the antitumor activities entry in series [4] (Anticancer Research, 1, 345 (1981)) was “possess antitumor activities”. Besides, in series [4] (clinical trial limitation, similarity to PAF), the adverse effects entry is “various adverse effects such as bronchostenosis, platelet aggregation and hypotension”.

`CCCCCCCCCCCCCCCCCCOCC(COCCOCC[n+]1ccn(CCCCCC(=O)OC)c1)Oc1ncccn1.[Cl-]` (stereo not shown) [Example 14, 1-(5-methoxycarbonylpentyl)-3-[2-[2-[3-octadecyloxy-2-(pyrimidin-2-yloxy)propoxy]ethoxy]-ethyl]imidazolium chloride]: the IC50 in series [1] worked out at 0.32 µg/mL.

As to `O=C([O-])CCCCCn1cc[n+](CCOCCOCC(COCCCCCCCCCCCCC2CCCCC2)Oc2ncccn2)c1` (stereo not shown) [Example 25, 6-[3-[2-[2-[3-(12-cyclohexyldodecyloxy)-2-(pyrimidin-2-yloxy)propoxy]ethoxy]ethyl]imidazolio-1-yl]hexanoate], the IC50 in series [1] worked out at 0.16 µg/mL (≈ 0.238 µM).

Consider `CCCCCCCCCCCCCCCCCCOCC(COCCCC[n+]1cccc(CCCCC(=O)[O-])c1)Oc1ncccn1` (stereo not shown) [Example 23, 5-[1-[4-[3-octadecyloxy-2-(pyrimidin-2-yloxy)-propoxy]butyl]pyridinio-3-yl]pentanoate], for which, in series [1], the midpoint of inhibition, the IC50, lay at 0.32 µg/mL (≈ 0.488 µM).

In series [1], `CCCCCCCCCCCCCCCCCCOCC(COCCOCC[N+](C)(C)CCCCCC(=O)[O-])Oc1ncccn1` (stereo not shown) [Example 9, 6-[N,N-dimethyl-N-[2-[2-[3-octadecyloxy-2-(pyrimidin-2-yloxy)propoxy]ethoxy]ethyl]ammonio]-hexanoate] gave an IC50 of 1.25 µg/mL (≈ 1.92 µM). In addition, the “Number of mice that died/number of subject mice” value in the series with CDF-1 mice (100 mg/kg) was 0/5.

In turn, `O=C([O-])CCCn1cc[n+](CCOCCOCC(COCCCCCCCCCCCCC2CCCCC2)Oc2ncccn2)c1` (stereo not shown) [Example 24, 4-[3-[2-[2-[3-(12-cyclohexyldodecyloxy)-2-(pyrimidin-2-yloxy)propoxy]ethoxy]ethyl]imidazolio-1-yl]butyrate] showed an IC50 in series [1] of 0.32 µg/mL (≈ 0.496 µM).

On to `CCCCCCCCCCCCCCCCCCOCC(COCCOCC[n+]1ccn(CCCCc2ccc(C(=O)[O-])cc2)c1)Oc1ncccn1` (stereo not shown) [Example 10, 4-[4-[3-[2-[2-[3-octadecyloxy-2-(pyrimidin-2-yloxy)-propoxy]ethoxy]ethyl]imidazolio-1-yl]butyl]benzoate], for which, in series [1], it took 0.32 µg/mL (≈ 0.434 µM) to reach half-maximal inhibition (IC50). In the series with CDF-1 mice (50 mg/kg), the “Number of mice that died/number of subject mice” value is 0/5.

The compound `CCCCCCCCCCCCCCCCCCOCC(COCCOCC[n+]1ccn(CCCCCC(=O)[O-])c1)OCC(C)=O` (stereo not shown) [Example 3] yielded an IC50 in series [1] of 0.32 µg/mL (≈ 0.49 µM). Also, in the series on CDF-1 mice (50 mg/kg), the “Number of mice that died/number of subject mice” value is listed as 0/5.

The compound `CCCCCCCCCCCCCCCCCCOCC(COCCOCC[n+]1ccn(CCC(C)(C)C(=O)OCC)c1)Oc1ncccn1` (stereo not shown) [Example 15, 1-(3-ethoxycarbonyl-3-methyl)butyl-3-[2-[2-[3-octadecyloxy-2-(pyrimidin-2-yloxy)propoxy]-ethoxy]ethylimidazolium chloride] showed an IC50 in series [1] of 0.63 µg/mL.

`CCCCCCCCCCCCCCCCCCOCC(COCCOCC[n+]1ccn(CCCCC2CCC(C(=O)[O-])CC2)c1)Oc1ncccn1` (stereo not shown) [Example 11, 4-[4-[3-[2-[2-[3-octadecyloxy-2-(pyrimidin-2-yloxy)propoxy]ethoxy]ethyl]imidazolio-1-yl]butyl]-cyclohexylcarboxylate]: the IC50 in series [1] came to 0.32 µg/mL (≈ 0.431 µM).

On to `CCCCCCCCCCCCCCCCCCOCC(COCCCC[n+]1cccc(CCC(=O)[O-])c1)Oc1ncccn1` (stereo not shown) [Example 22, 3-[1-[4-[3-octadecyloxy-2-(pyrimidin-2-yloxy)-propoxy]butyl]pyridinio-3-yl]propionate], for which, in series [1], the IC50 is 0.63 µg/mL (≈ 1 µM).
